Read-outs that look alike come from different tables or passages of the source.

The target of assay [1] is T1, human CB1 receptor (Homo sapiens (Human), UniProt P21554). The assay is described as follows: Membrane competition binding assay with [3H]-CP 55,940, CHO-CB1 membranes. From the text:
(§1) The cDNA clones for human HA-tagged CB1 and CB2 receptors were obtained from the Missouri S&T cDNA Resource Center (www.cdna.org) in cloning vector pcDNA3.1+. The vector containing the human CB2 receptor was transfected directly into CHO-KI cells obtained from ATCC. The HA-tagged human CB1 receptor sequence was subcloned into the pef4-V5-HisA vector with Kpn1 and Pme1 restriction enzymes and subsequently transfected into CHO-K1 cells. Cells were clonally isolated by limited dilution and screened by immunocytochemistry for expression of the HA tag.
(§2) Cells were maintained in DMEM/F12 media supplemented with 10% fetal bovine serum (FBS), 100 units/ml penicillin and 100 μg/ml streptomycin and 2 mM L-glutamine. Transfected cell lines were maintained with additional 150 ug/ml zeocin for pEF HA-CB1 transfected cells and 500 ug/ml G-418 for pcDNA HA-CB2 transfected cells (all reagents obtained from Invitrogen).
(§3) Cells were grown to confluence and harvested in ice cold phosphate buffered saline with 5 mM EDTA. Cells were spun at 200×g for 10 min and frozen at −80° C. until required. Cell pellets were thawed with cold 0.32 M sucrose and homogenised with a glass homogeniser. The homogenate was spun at 1000×g for 10 min at 4° C. and the supernatant spun in a Sorvall ultracentrifuge for 30 min at 100,000×g. The pellet was then washed in ice cold water and re-spun twice more. The final pellet was resuspended in 50 mM Tris pH 7.5, 0.5 mM EDTA. Protein concentration was determined using the Dc protein assay kit (BioRad, Hercules, Calif., USA).
(§4) Membranes (5-10 μg) were incubated with radioligand and a range of concentrations of test compounds in binding buffer (50 mM Tris pH 7.4, 5 mM MgCl2, 1 mM EDTA) with 0.5% (w/v) bovine serum albumin (BSA) (ICP Bio, New Zealand), at 30° C. for 60 min. Stock solutions of putative cannabinoid ligands were prepared in dimethyl sulfoxide to a concentration of 10 mM. Six different final concentrations of compounds were used ranging from 50 μM to 0.1 nM. […] Assays were terminated by addition of 2 ml ice cold binding buffer and filtration through GF/C filters (Whatman) pre-soaked in cold binding buffer, followed by two washes in the same buffer.
(§5) Radioactivity was determined by incubation of filters with Irgasafe scintillation fluid (PerkinElmer) and scintillation counting in a Wallac Trilux using Microbeta Trilux software. Data was analysed using the Prism 4.02 programme (GraphPad Software, San Deigo, Calif., USA).
(§6) All data was analyzed using Prism 4.02. For binding data the Ki was determined from IC50 values derived from competition binding data fitted with one site competition non-linear regression analysis by Prism 4.02 using the Kd values reported above.

The target of assay [2] is T2, human CB2 receptor (Homo sapiens (Human), UniProt P34972). The assay can be described thus: Membrane [35S]GTPγS binding assay. The following applies: for Emax: read-out: [35S]GTPγS Emax. The class given is biochemical. Here is the method:
Human CB2 expressing CHO-K1 membranes (5 μg per incubation mixture) were diluted in 50 mM Tris-HCl (pH 7.5) and 0.5 mM EDTA and added to HU compounds in a pre-mixed incubation cocktail. Final incubation concentrations were 55 mM Tris-HCl (pH 7.4), 1 mM EDTA, 100 mM NaCl, 5 mM MgCl2, 0.5% BSA, 50 μM GDP, 0.2 nM [^35S]GTPγS (PerkinElmer) with varied HU compound concentration and 5 μg membrane. Incubations were continued for 60 minutes at 30° C. in a shaking water bath. Assays were terminated by addition of 2 ml ice cold wash buffer (50 mM Tris-HCl, pH 7.5 and 5 mM MgCl2) and filtration through pre-soaked GF/C filters (Whatman), followed by two further washes. adioactivity was determined as described for competition binding assays.
Data was analyzed using the Prism 4.02 programme (GraphPad Software, San Deigo, Calif., USA). IC50 and EC50 values, as determined from sigmoidal curves, were generated from drug concentrations plotted in log scale. […] It is possible to display data as an average, plus or minus the standard error of the mean in log form, however, this is not easily interpreted or compared to other values. It was therefore elected to calculate the 95% confidence interval for the mean value in log form and then convert the lower limit, mean and upper limit into the molar (linear) scale. […] Two-tailed t-tests for statistical analysis between enantiomeric pairs of compounds were performed for CB2 Ki values. The Pearson value, an indication of linearity, was determined for Ki and IC50 or EC50 results obtained for CB2 receptors in binding, cAMP or GTPγS experiments, respectively.
A general note: GTPγS is a poorly hydrolysed GTP analogue; its binding reports G protein activation.

Assay [3] concerns the target T2, human CB2 receptor. The assay can be described thus: cell-based.
From the text: as §1, §2
(§7) Cells were seeded at a density of 10,000 cells per well in poly-L-lysine treated 96-well culture plates (BD Biosciences). The following day wells were incubated with 40 μl DMEM/F12 containing 0.5% (w/v) BSA and 0.5 mM 3-isobutyl-1-methylxanthine (Sigma-Aldrich) for 30 minutes prior to 15 min stimulation with 50 μM forskolin (Tocris Cookson) and varying concentrations of indicated compounds at 37° C., 5% CO2. Assays were stopped by removal of media and addition of 100% ice cold ethanol. Plates were then frozen for a minimum of two hours before complete evaporation of ethanol. The well contents were then reconstituted in 50 μl cAMP assay buffer (20 mM HEPES pH 7.5 and 5 mM EDTA). Half of the reconstituted sample was transferred to round bottom 96-well plates (Greiner Bio-One GmbH) with 50 μl 0.01% w/v PKA (cAMP dependent protein kinase (Sigma-Aldrich) in 1 mM Na citrate pH 6.5 with 2 mM dithiothreitol) and 25 μl [^3H]-cAMP (at 22 nM in cAMP assay buffer) (GE Healthcare, Life Sciences). This was allowed to equilibrate for 3-18 hours. Following this a charcoal slurry (5% (w/v) activated charcoal and 0.2% (w/v) BSA in cAMP assay buffer) was added to the samples and the plates centrifuged at 3000×g, 4° C. for 5 min. Radioactive counts within the supernatant were then determined as described for competition binding assays.
(§8) pIC50 values were determined from cAMP assays by fitting a sigmoidal concentration response curve using Prism 4.02.

Assay [4] addresses T1, human CB1 receptor. The assay can be described thus: cell-based.
From the text: as §1, §2, §7, §8

Assay [5] has as its target T2, human CB2 receptor. The assay is described as follows: Membrane competition binding assay with [3H]-CP 55,940, CHO-CB2 membranes.
From the text: as §1, §2, §3, §4, §5, §6

The mark [6] stands for this setting: CHO, read-out: cAMP Assay CB2 Receptor Emax.
[7] abbreviates: CHO-CB1 cellular membranes, 2.5 nM [3H]-CP 55,940, read-out: Competition Binding Assay CB1 Receptor Ki.
Setting [8] is: read-out: cAMP Assay CB2 Receptor IC50.
The mark [9] stands for this setting: whole cells expressing CB1, 50 μM forskolin, read-out: cAMP Assay CB1 Receptor IC50.
Where [10] appears, read: human CB2 CHO-K1 membranes, mean (95% confidence interval), n = 5.
The mark [11] stands for this setting: CHO; read-out: cAMP Assay CB2 Receptor Emax.
Where [12] appears, read: whole cells expressing CB2, 50 μM forskolin; read-out: cAMP Assay CB2 Receptor IC50.
The mark [13] stands for this setting: CHO-CB2 cellular membranes, 2.5 nM [3H]-CP 55,940.

T1 sequence (P21554 whole entry): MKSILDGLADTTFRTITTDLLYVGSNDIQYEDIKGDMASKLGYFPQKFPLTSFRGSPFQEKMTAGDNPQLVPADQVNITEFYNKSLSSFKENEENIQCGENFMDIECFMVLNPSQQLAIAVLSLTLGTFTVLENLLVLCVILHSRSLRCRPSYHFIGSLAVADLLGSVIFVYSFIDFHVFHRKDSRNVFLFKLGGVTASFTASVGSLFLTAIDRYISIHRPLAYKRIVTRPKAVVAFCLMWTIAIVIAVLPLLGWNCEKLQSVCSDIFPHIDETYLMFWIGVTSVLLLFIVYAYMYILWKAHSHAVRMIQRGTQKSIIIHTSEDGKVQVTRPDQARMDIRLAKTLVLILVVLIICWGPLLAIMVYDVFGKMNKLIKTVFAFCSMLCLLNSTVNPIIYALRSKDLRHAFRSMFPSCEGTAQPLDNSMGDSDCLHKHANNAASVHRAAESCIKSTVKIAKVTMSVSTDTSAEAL

In general, Ki refers to a dissociation constant, usually derived from enzyme kinetics or from competition with a known ligand. What is called Emax is the greatest response seen or fitted, relative to the assay's reference. In general, IC50 refers to the point on the concentration scale where inhibition reaches its midpoint. Turning to `CCCCCCC(C)(C)c1cc(OC)c([C@@H]2C=C(CO)[C@@H]3C[C@H]2C3(C)C)c(OC)c1` [HU-308, [(1R,2R,5R)-2-[2,6-dimethoxy-4-(2-methyloctan-2-yl)phenyl]-7,7-dimethyl-4-bicyclo[3.1.1]hept-3-enyl]methanol, reference compound], the Ki in assay [1] was > 50000 nM. For the same molecule, the Emax in assay [2] and in assay [3] (setting [6]) was 100% each time. In assay [4], the IC50 was > 50000 nM.

Usually EC50 stands for the concentration needed to bring the measured effect to its halfway point. Low values mean greater potency, high ones weaker potency. As for `CCCCCCC(C)(C)c1cc(OC)c(C2=C[C@@H]3CC[C@@]2(CO)C3(C)C)c(OC)c1` [HU-909, (1R,4S)-(2-(2,6-dimethoxy-4-(2-methyloctan-2-yl)phenyl)-7,7-dimethylbicyclo[2.2.1]hept-2-en-1-yl)methanol], the Ki in assay [1] (setting [7]) was 11700 nM; in assay [5], 56.8 nM. The molecule further had a concentration for a half-maximal effect (EC50) in assay [2] of 136 nM. The maximum response (Emax) in assay [2] was 76 ± 7%; in assay [3] (setting [6]), 95 ± 6%. Besides, the concentration for half-maximal inhibition (IC50) in assay [3] (setting [8]) is 425 nM; in assay [4] (setting [9]), > 50000 nM.

With `CCCCCCC(C)(C)c1cc(OC)c(C2=C[C@@H]3CC[C@@]2(C(=O)OC)C3(C)C)c(OC)c1` [HU-911, (1R,4S)-methyl-2-(2,6-dimethoxy-4-(2-methyloctan-2-yl)phenyl)-7,7-dimethylbicyclo[2.2.1]hept-2-ene-1-carboxylate], the Ki was > 50000 nM in assay [1] (setting [7]) and 84.6 nM in assay [5] (setting [13]). Besides, it took 126 nM to reach a half-maximal effect in assay [2] (setting [10]) (EC50). Further, the Emax in assay [2] is 94 ± 4%; in assay [3] (setting [11]), 86 ± 9%. The results for the IC50 in assay [3] (setting [12]) and in assay [4] (setting [9]) were 385 nM and > 50000 nM, respectively.

As for `CCCCCCC(C)(C)c1cc(OC)c(C2=C[C@@H]3CC[C@@]2(C(=O)O)C3(C)C)c(OC)c1` [HU-913, (1R,4S)-2-(2,6-dimethoxy-4-(2-methyloctan-2-yl)phenyl)-7,7-dimethylbicyclo[2.2.1]hept-2-ene-1-carboxylic acid], the inhibition constant Ki was > 50000 nM in assay [1] (setting [7]) and 81.5 nM in assay [5]. The EC50 in assay [2] is 344 nM. The Emax in assay [2] came to 98 ± 3%; in assay [3] (setting [6]), 101 ± 11%. Besides, the half-inhibitory concentration (IC50) in assay [3] (setting [8]) was 330 nM; in assay [4] (setting [9]), > 50000 nM.

For `CCCCCCC(C)(C)c1cc(OC)c(C2C(=O)[C@]3(C)CC[C@H]2C3(C)C)c(OC)c1` (stereo partly drawn) [HU-926, (1R,4R)-3-(2,6-dimethoxy-4-(2-methyloctan-2-yl)phenyl)-1,7,7-trimethylbicyclo[2.2.1]heptan-2-one], the Ki in assay [1] (setting [7]) was > 50000 nM; in assay [5] (setting [13]), 106 nM. Also, in assay [2] (setting [10]), the EC50 worked out at 185 nM. For the same molecule, the Emax amounted to 51 ± 6% in assay [2] and 100 ± 13% in assay [3] (setting [11]). Also, the IC50 was 321 nM in assay [3] (setting [12]) and > 50000 nM in assay [4] (setting [9]).

On to `CCCCCCC(C)(C)c1cc(OC)c(C2C(O)[C@]3(C)CC[C@H]2C3(C)C)c(OC)c1` (stereo partly drawn) [HU-928, (1R,4R)-3-(2,6-dimethoxy-4-(2-methyloctan-2-yl)phenyl)-1,7,7-trimethylbicyclo[2.2.1]heptan-2-ol], for which the Ki in assay [1] (setting [7]) is > 50000 nM; in assay [5] it was 230 nM. In assay [2], this molecule had an EC50 of 577 nM. Also, the Emax worked out at 95 ± 5% in assay [2] and 101 ± 11% in assay [3] (setting [6]). The IC50 in assay [3] (setting [8]) was 925 nM; in assay [4] (setting [9]), > 50000 nM.

These data come from patent US9365534B2, “Arylated camphenes, processes for their preparation and uses thereof” (Yissum Research Development Company of the Hebrew …, priority 2009, dated 2016).
